pIC50: −log10 of the molar value.
Experiments:
[1] = test system: human IL-1β; assay: IL-1β assay: suppression of IL-1β production by LPS-stimulated PBMC (sandwich ELISA); format: cell-based; conditions: LPS 1 μg/ml, 72 hours at 37° C.
Description: (§1) Peripheral blood mononuclear cells (herein referred as PBMC), in response to stimulation by lipopolysaccharide (LPS), a gram-negative bacterial endotoxin, produce various […], in particular human TNF-α and IL-1β. The inhibition of the activation of PBMC can be measured by the level of suppression of the production of TNF-α or IL-1β by PBMC in response to stimulation by LPS.
(§2) Such inhibition measurement was performed as follows: PBMC were isolated from heparinized peripheral blood (Buffy coat) by density gradient centrifugation. LPS is then added to the PMBC suspension in complete medium (10^6 cells/ml) at a final concentration of 1 μg/ml. The pteridine derivative to be tested was added at different dilution levels, and the cells were incubated at 37° C. for 72 hours. The supernatants were collected, and TNF-α or IL-1β concentrations were measured with respectively an anti-TNF antibody or an anti-IL-1β antibody in a sandwich ELISA (Duo Set ELISA human TNFα, commercially available from R&D Systems, United Kingdom). The colorimetric reading of the ELISA was measured by a Multiskan RC plate reader (commercially available from ThermoLabsystems, Finland) at 450 nm (reference wavelength: 690 nm). Data analysis was performed with Ascent software 2.6. (also from ThermoLabsystems, Finland): a standard curve (recombinant human TNFα) was drawn and the amount (pg/ml) of each sample on the standard curve was determined.
(§3) The % inhibition of human TNF-α production or human IL-1β was calculated using the formula: % inhibition=[…] wherein: min.: pg/ml in culture medium without test compound, and
(§4) max.: pg/ml in culture medium+LPS without test compound.

[2] = test system: C3H mice; assay: Protection against lethal toxic shock (LPS injection); format: in vivo
[3] = test system: C57BL/6 male mice; assay: Protection against a lethal dose of TNF-α (TNF-α induced shock); format: in vivo; conditions: for Animals surviving 48 hours after TNF-α administration: TNF-α 10 μg i.v., 20 mg/kg/day i.p. three injections, total animals 9, 6, 6
Description: A model of TNF-α induced shock in C57BL/6 male mice was performed as follows. Animals from the control group received an Intravenous administration of a lethal dose of TNF-α (10 μg) in the tail. Animals from the test group received three intraperitoneous injections of a pteridine derivative (20 mg/kg/day) respectively 48 hours, 24 hours and immediately before an intravenous injection of TNF-α (10 μg).

[4] = test system: melanoma (B16BL/6) in C57BL6 (B6) mice; assay: Reduction of tumor growth while inhibiting TNF-α toxicity, melanoma tumor model; format: in vivo
Description: A tumor model of melanoma (B16BL/6) in C57BL6 (B6) mice was performed as follows. On day 1, a group of 18 B6 mice were injected with 1.5×10^6 B16BL/6 melanosarcoma cells. The group was further divided into the following subgroups 3 days after the tumor cells injection: • a first control sub-group of 6 mice received vehicle (physiological solution) 3 times a week starting on day 3; • a second control subgroup of 5 mice received TNF-α (15 μg) on day 5 and, for surviving animals, TNF-α was again administered 3 times a week for 2 weeks; • a test sub-group of 7 mice intraperitoneously received the pteridine derivative of example 24 at a dose of 20 mg/kg on each of days 3, 4 and 5; the latter third injection on day 5 occurred 2 hours before a first TNF-α intravenous injection (15 μg). Then the test compound (20 mg/kg/day) and TNF-α (15 μg/day) were administered each subcutaneously 3 times a week for 2 weeks.

[5] = test system: human TNF-α; assay: TNF-α assay: suppression of TNF-α production by LPS-stimulated PBMC (sandwich ELISA); format: cell-based; conditions: LPS 1 μg/ml, 72 hours at 37° C.
Description: as §1, §2, §3, §4

[6] = group of 16 C3H mice, 100 μg LPS i.p., 20 mg/kg/day i.p. for 2 days

| pIC50 [5] | SMILES | also measured |
| --- | --- | --- |
|  | COc1ccc(-c2cnc3nc(N)nc(N4CCOCC4)c3n2)cc1OC [Example 24, 2-amino-4-morpholino-6-(3,4-dimethoxyphenyl)pteridine] | pIC50 ([1]; Homo sapiens): 5.26; animals permanently survived the challenge of a LPS lethal dose [2, 6]: 14; animals showing a significantly prolonged survival [2, 6]: 2; prolonged survival ([2]; the 2 animals that did not survive permanently, controls die within 1-3 days): 5 days; Animals surviving 48 hours after TNF-α administration [3]: 7; body temperature ([3]; followed for 48 hours after TNF-α 10 μg i.v., 20 mg/kg/day i.p. 48 h, 24 h and immediately before, control 28.2° C.): 30.1 °C; average tumor size (largest diameter multiplied by smallest diameter) ([4]; after two weeks treatment together with TNF-α, first control group 439 mm^2): 144 mm^2; animals of the test sub-group survived ([4]; out of 7 tumor bearing mice, 20 mg/kg plus TNF-α 15 μg, second control group all died): 5 |
| 5.10 | CC(C)Oc1nc(N)nc(N)c1N [Example 59, 2,5,6-triamino-4-isopropoxy-pyrimidine] |  |
| 5.04 | CC(C)Oc1nc(N)nc2ncc(Cl)nc12 [Example 65, 2-amino-6-chloro-4-isopropoxypteridine] |  |
| 5.00 | CCOc1nc(N)nc2ncc(-c3ccccc3OC)nc12 [Example 67, 2-amino-6-(o-methoxyphenyl)-4-ethoxy-pteridine] |  |
| 5.00 | CCOc1nc(N)nc2ncc(-c3cccc(OC)c3)nc12 [Example 68, 2-amino-6-(m-methoxyphenyl)-4-ethoxy-pteridine] |  |
| 5.07 | CCOc1nc(N)nc2ncc(-c3cccs3)nc12 [Example 72, 2-amino-6-(2-thienyl)-4-ethoxy-pteridine] |  |
| 5.09 | CCOc1nc(N)nc2ncc(-c3ccc(F)cc3)nc12 [Example 77, 2-amino-6-(p-fluorophenyl)-4-ethoxy-pteridine] |  |
| 5.17 | CCOc1nc(N)nc2ncc(-c3ccc(F)c(C)c3)nc12 [Example 80, 2-amino-6-(3-methyl-4-fluorophenyl)-4-ethoxy-pteridine] |  |
| 5.18 | CCOc1nc(N)nc2ncc(-c3ccc(OC)c(OC)c3)nc12 [Example 83, 2-amino-6-(3,4-dimethoxyphenyl)-4-ethoxy-pteridine] |  |
|  | Cc1ccc(-c2cnc3nc(N)nc(OC(C)C)c3n2)cc1C [Example 85, 2-amino-6-(3,4-dimethylphenyl)-4-isopropoxypteridine] | pIC50 ([1]; Homo sapiens): < 4.40 |
| 5.12 | CC(C)Oc1nc(N)nc2ncc(-c3ccc(F)c(Cl)c3)nc12 [Example 87, 2-amino-6-(3-chloro-4-fluorophenyl)-4-isopropoxypteridine] |  |
| 5.00 | CCOc1ccc(-c2cnc3nc(N)nc(OC(C)C)c3n2)cc1 [Example 92, 2-amino-6-(p-ethoxyphenyl)-4-isopropoxypteridine] |  |
| 5.12 | CC(C)Oc1nc(N)nc2ncc(-c3ccsc3)nc12 [Example 94, 2-amino-6-(3-thienyl)-4-isopropoxypteridine] |  |
| 5.04 | CC(=O)c1ccc(-c2cnc3nc(N)nc(OC(C)C)c3n2)cc1 [Example 97, 2-amino-6-(p-acetylphenyl)-4-isopropoxypteridine] |  |
|  | COc1ccc(-c2cnc3nc(N)nc(N4CC=CCC4)c3n2)cc1OC [Example 119, 2-amino-4-(1,2,3,6-tetrahydropyridinyl)-6-(3,4-dimethoxyphenyl)pteridine] | pIC50 [1]: 4.82; Animals surviving 48 hours after TNF-α administration [3]: 3 |
| 5.00 | COc1ccc(-c2cnc3nc(NCc4cccs4)nc(N)c3n2)cc1OC [Example 143, 2-(2-thienylmethylamino)-4-amino-6-(3,4-dimethoxyphenyl)pteridine] |  |
| 5.03 | COc1ccc(-c2cnc3nc(NCc4ccccc4)nc(N)c3n2)cc1OC [Example 145, 2-benzylamino-4-amino-6-(3,4-dimethoxyphenyl)pteridine] |  |
| 5.31 | Nc1nc(N2CCOCC2)c2nc(-c3ccc(NC(=O)COc4ccccc4)cc3)cnc2n1 [Example 160, 2-amino-4-morpholino-6-(4-phenoxyacetylaminophenyl)pteridine] |  |
| 5.36 | Nc1nc(N2CCOCC2)c2nc(-c3ccc(NC(=O)c4ccncc4)cc3)cnc2n1 [Example 166, 2-amino-4-morpholino-6-(4-isonicotinoylaminophenyl)pteridine] |  |
| 5.37 | Nc1nc(N2CCOCC2)c2nc(-c3cccc(NC(=O)c4ccccc4)c3)cnc2n1 [Example 171, 2-amino-4-morpholino-6-(3-benzoylaminophenyl)pteridine] |  |
| 6.30 | Nc1nc(N2CCOCC2)c2nc(-c3cccc(NS(=O)(=O)c4ccccc4)c3)cnc2n1 [Example 172, 2-amino-4-morpholino-6-(3-benzensulfonylaminophenyl)pteridine] |  |
| 5.14 | Nc1nc(N2CCOCC2)c2nc(-c3cccc(NC(=O)c4ccncc4)c3)cnc2n1 [Example 174, 2-amino-4-morpholino-6-(3-isonicotinoylaminophenyl)pteridine] |  |
| 5.30 | Nc1nc(N2CCOCC2)c2nc(-c3cccc(NC(=O)C4CCCCC4)c3)cnc2n1 [Example 175, 2-amino-4-morpholino-6-(3-cyclohexanoylaminophenyl)pteridine] |  |
| 5.11 | Nc1nc(N2CCOCC2)c2nc(-c3cccc(NC(=O)COCc4ccccc4)c3)cnc2n1 [Example 179, 2-amino-4-morpholino-6-(3-benzyloxyacetylaminophenyl)pteridine] |  |
| 5.00 | CCS(=O)(=O)Nc1cccc(-c2cnc3nc(N)nc(N4CCOCC4)c3n2)c1 [Example 180, 2-amino-4-morpholino-6-(3-ethylsulfonylaminophenyl)pteridine] |  |
| 5.00 | CCOc1ccc(-c2cnc3nc(N)nc(N4CCOCC4)c3n2)cc1 [Example 186, 2-amino-4-morpholino-6-(4-ethoxyphenyl)pteridine] |  |
| 5.00 | CCCOc1ccc(-c2cnc3nc(N)nc(N4CCOCC4)c3n2)cc1 [Example 190, 2-amino-4-morpholino-6-(4-propoxy-phenyl)pteridine] |  |
| 5.14 | COCCOc1ccc(-c2cnc3nc(N)nc(N4CCOCC4)c3n2)cc1 [Example 193, 2-amino-4-morpholino-6-(4-(2-methoxyethoxy)-phenyl)pteridine] |  |

| SMILES | pIC50 [5] | also measured |
| --- | --- | --- |
| COc1ccc(-c2cnc3nc(N)nc(OC(C)C)c3n2)cc1OC [Example 98, 2-amino-6-(3,4-dimethoxyphenyl)-4-isopropoxypteridine] | 5.46 | pIC50 ([1]; Homo sapiens): < 4.40; Animals surviving 48 hours after TNF-α administration [3]: 3 |

Source: patent US20070004721A1, “Pteridine derivatives for the treatment of septic shock and tnf-a-related diseases” (priority 2003, published 2007)
